The test relates to IFNα-induced pSTAT5 (pY694) in CD3 positive cells of human whole blood. Kind of test: IFNα-Induced STAT Phosphorylation in Human Whole Blood. It is filed as cell-based. The settings on record: Homo sapiens, 1 h compound incubation, 1000 U/mL recombinant human IFNα A/D for 15 min, pSTAT5 in CD3 positive population, read-out: Human WB IFNα-Induced Stat Phosph. (IC50). The essentials:
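Read-out is median fluorescence intensity of pSTAT5 (pY694) in the CD3-positive gate, by flow cytometry after fix/lyse and permeabilization. Before that, whole human blood anticoagulated with EDTA or ACD-A received compound for an hour and 1000 U/mL IFNα A/D for 15 min.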

The term IC50 denotes the midpoint of a concentration-inhibition curve. Turning to `[2H]C([2H])([2H])NC(=O)c1cnc(NC(=O)C2CC2)cc1Nc1cccc(-c2nc(COCc3ccccc3)no2)c1OC` [Example 216], the IC50 amounted to 320 nM.

For the molecule `[2H]C([2H])([2H])NC(=O)c1nnc(NC(=O)C2CC2)cc1Nc1cccc(-c2nc(CNC(=O)CN3CCN(C(=O)OC(C)(C)C)CC3)no2)c1OC` [Example 161], the IC50 was 9420 nM.

Regarding `[2H]C([2H])([2H])NC(=O)c1nnc(NC(=O)C2CC2)cc1Nc1cccc(-c2cc(C(=O)N3CCS(=O)(=O)CC3)n(C)n2)c1OC` [Example 455, 6-(cyclopropanecarboxamido)-4-((3-(5-(1,1-dioxidothiomorpholine-4-carbonyl)-1-methyl-1H-pyrazol-3-yl)-2-methoxyphenyl)amino)-N-(methyl-d3)pyridazine-3-carboxamide], the IC50 turned out to be 560 nM.

In the case of `[2H]C([2H])([2H])NC(=O)c1nnc(NC(=O)C2CC2)cc1Nc1cccc(-c2nc(-c3ccccc3)no2)c1OC` [Example 123], the IC50 was over 10000 nM.

`[2H]C([2H])([2H])NC(=O)c1nnc(NC(=O)C2CC2)cc1Nc1cccc(-c2ccn(CCNC(=O)OC(C)(C)C)n2)c1OC` [Example 464]: the IC50 came to 1110 nM.

Regarding `[2H]C([2H])([2H])NC(=O)c1nnc(Nc2cnc(OC)cn2)cc1Nc1cccc(-c2csc(C(=O)N3CCOCC3)n2)c1OC` [Example 564], the IC50 was over 10000 nM.

Regarding `[2H]C([2H])([2H])NC(=O)c1nnc(NC(=O)C2CC2)cc1Nc1cccc(-c2cc(C(=O)N3CNCC(=O)C3)n(C)n2)c1OC` [Example 532], the IC50 is 470 nM.

Take `[2H]C([2H])([2H])NC(=O)c1nnc(NC(=O)C2CC2)cc1Nc1cccc(-c2cc(C(=O)NCCOC)n(C)n2)c1OC` [Example 458]: the IC50 was 1210 nM.

For `COc1c(Nc2cc(NC(=O)C3CC3)nnc2C(N)=O)cccc1-c1noc([C@@H]2C[C@@H](O)CN2S(C)(=O)=O)n1` [Example 11], the IC50 is 21 nM.

Take `[2H]C([2H])([2H])NC(=O)c1nnc(NC(=O)C2CC2)cc1Nc1cccc(-c2noc(CN3CC(O)C3)n2)c1OC` [Example 80]: the IC50 was 110 nM.

For the molecule `[2H]C([2H])([2H])NC(=O)c1nnc(NC(=O)C2CC2)cc1Nc1cc(F)cc(-c2cc(C(=O)N3CCc4ccccc4C3)n(C)n2)c1OC` [Example 512], the IC50 amounted to 2560 nM.

For `[2H]C([2H])([2H])NC(=O)c1nnc(NC(=O)C2CC2)cc1Nc1cccc(-c2cc(C)n(CCN)n2)c1OC` [Example 462], the IC50 was 4450 nM.

For the molecule `COc1c(Nc2cc(NC(=O)C3CC3)ncc2C(N)=O)cccc1-c1nc(CN2CCN(S(C)(=O)=O)CC2)no1` [Example 577], the IC50 is 19 nM.

In the case of `[2H]C([2H])([2H])NC(=O)c1nnc(NC(=O)C2CC2)cc1Nc1cccc(-c2cc(C(=O)N3CCC(OC)C3)n(C)n2)c1OC` (centres unmarked) [Example 522], the IC50 stood at 190 nM.

As to `[2H]C([2H])([2H])NC(=O)c1nnc(Nc2cc(C(C)(C)O)ccn2)cc1Nc1cc(F)cc(-c2cc(C(C)(C)O)n(C)n2)c1OC` [Example 547], the IC50 was found to be 400 nM.

Take `[2H]C([2H])([2H])NC(=O)c1nnc(NC(=O)C2CC2)cc1Nc1cccc(-c2ncc(CC(=O)NCCOC)o2)c1OC` [Example 411]: the IC50 worked out at 1800 nM.

As for `[2H]C([2H])([2H])NC(=O)c1nnc(NC(=O)C2CC2)cc1Nc1cc(F)cc(-c2cc(C(=O)N3CCC(N(C)C)CC3)n(C)n2)c1OC` [Example 515], the IC50 came out at 290 nM.

On to `[2H]C([2H])([2H])NC(=O)c1cnc(NC(=O)C2CC2)cc1Nc1cccc(-c2nc(CN3CCCC3)no2)c1OC` [Example 215], for which the IC50 worked out at 150 nM.

For the molecule `[2H]C([2H])([2H])NC(=O)c1nnc(NC(=O)C2CC2)cc1Nc1cccc(-c2ccn(CCNC(=O)CO)n2)c1OC` [Example 467], the IC50 was determined as 200 nM.

Consider `[2H]C([2H])([2H])NC(=O)c1nnc(NC(=O)C2CC2)cc1Nc1cccc(-c2nc([C@H](COC(C)=O)NC(C)=O)no2)c1OC` [Example 200], for which the IC50 is 760 nM.

Turning to `[2H]C([2H])([2H])NC(=O)c1nnc(NC(=O)C2CC2)cc1Nc1cccc(-c2ncc(C(=O)N3CCOCC3)s2)c1OC` [Example 268], the IC50 was found to be 100 nM.

In the case of `[2H]C([2H])([2H])NC(=O)c1nnc(NC(=O)C2CC2)cc1Nc1cccc(-c2nc(CN3CCN(C(=O)CC#N)CC3)no2)c1OC` [Example 134], the IC50 came out at 110 nM.

For the molecule `[2H]C([2H])([2H])NC(=O)c1nnc(NC(=O)C2CC2)cc1Nc1cccc(-c2noc(CN3CCOCC3)n2)c1OC` [Example 7], the IC50 was determined as 24 nM.

Consider `[2H]C([2H])([2H])NC(=O)c1nnc(NC(=O)C2CC2)cc1Nc1cccc(-c2nc([C@@H](NC(=O)OC)[C@@H](C)O)no2)c1OC` [Example 188], for which the IC50 is 1270 nM.

Turning to `COc1c(Nc2cc(NC(=O)C3CC3)nnc2C(N)=O)cccc1-c1noc(CNS(=O)(=O)C(C)C)n1` [Example 50], the IC50 was found to be 70 nM.

Take `[2H]C([2H])([2H])NC(=O)c1nnc(NC(=O)C2CC2)cc1Nc1cccc(-c2cc(C)nn2CCNC(=O)COC)c1OC` [Example 461]: the IC50 worked out at 220 nM.

For the molecule `[2H]C([2H])([2H])NC(=O)c1nnc(NC(=O)C2CC2)cc1Nc1cc(F)cc(-c2cc(NS(C)(=O)=O)n(C)n2)c1OC` [Example 501], the IC50 amounted to 1130 nM.

As for `[2H]C([2H])([2H])NC(=O)c1nnc(NC(=O)C2CC2)cc1Nc1cccc(-c2nc(CC(=O)N3CCOCC3)no2)c1OC` [Example 179], the IC50 stood at 290 nM.

For the molecule `[2H]C([2H])([2H])NC(=O)c1nnc(NC(=O)C2CC2)cc1Nc1cccc(-c2cc(C(=O)N(C)CCN(C)C)n(C)n2)c1OC` [Example 526], the 50% inhibitory concentration (IC50) stood at 520 nM.

Consider `[2H]C([2H])([2H])NC(=O)c1nnc(Nc2ccc(OC)nn2)cc1Nc1cccc(-c2ncc(CNC(C)=O)s2)c1OC` [Example 387], for which the IC50 stood at 270 nM.

Consider `[2H]C([2H])([2H])NC(=O)c1nnc(NC(=O)C2CC2)cc1Nc1cccc(-c2nc(CNC(=O)CN3CCNCC3)no2)c1OC` [Example 162], for which the IC50 is 2730 nM.

Take `[2H]C([2H])([2H])NC(=O)c1nnc(NC(=O)C2CC2)cc1Nc1cccc(-c2nc(C)c(C(=O)N3CCC(CCN4CCCC4)CC3)s2)c1OC` [Example 371]: the IC50 stood at 310 nM.

With `COc1c(Nc2cc(NC(=O)C3CC3)nnc2C(N)=O)cccc1-c1noc(CN2CCN(S(C)(=O)=O)CC2)n1` [Example 40], the IC50 amounted to 12 nM.

Take `[2H]C([2H])([2H])NC(=O)c1nnc(NC(=O)C2CC2)cc1Nc1cccc(-c2nc([C@H](C)NC(=O)OC)no2)c1OC` [Example 182]: the IC50 was found to be 2010 nM.

Turning to `[2H]C([2H])([2H])NC(=O)c1nnc(NC(=O)C2CC2)cc1Nc1cccc(-c2nc([C@@H](NC(=O)OC(C)(C)C)[C@@H](C)OC(C)(C)C)no2)c1OC` [Example 185], the IC50 is over 10000 nM.

`[2H]C([2H])([2H])NC(=O)c1nnc(NC(=O)C2CC2)cc1Nc1cc(F)cc(-c2cc(C(=O)N3CCC(CCO)CC3)n(C)n2)c1OC` [Example 509]: the IC50 was 170 nM.

As to `[2H]C([2H])([2H])NC(=O)c1nnc(NC(=O)C2CC2)cc1Nc1cccc(-c2ncc(CC(=O)NCCC3CCCN3C)o2)c1OC` (centres unmarked) [Example 412], the IC50 came out at 4620 nM.

Turning to `[2H]C([2H])([2H])NC(=O)c1nnc(NC(=O)C2CC2)cc1Nc1cccc(-c2cnn(CCNC(=O)CC#N)c2)c1OC` [Example 559], the 50% inhibitory concentration (IC50) is 830 nM.

Regarding `[2H]C([2H])([2H])NC(=O)c1nnc(NC(=O)C2CC2)cc1Nc1cccc(-c2ncc(CNC(=O)CC)s2)c1OC` [Example 262], the IC50 worked out at 2690 nM.

For the molecule `[2H]C([2H])([2H])NC(=O)c1nnc(NC(=O)C2CC2)cc1Nc1cccc(-c2ncc(CC(=O)NCCCN(C)C)s2)c1OC` [Example 252], the IC50 came to 3270 nM.

For `[2H]C([2H])([2H])NC(=O)c1nnc(NC(=O)C2CC2)cc1Nc1cccc(-c2nc(C3(NC(=O)CC#N)CC3)no2)c1OC` [Example 151], the IC50 amounted to 1550 nM.

For `[2H]C([2H])([2H])NC(=O)c1nnc(NC(=O)C2CC2)cc1Nc1cccc(-c2ncc(C(=O)N(C)C(C)C)s2)c1OC` [Example 292], the half-maximal inhibitory concentration (IC50) was 160 nM.

Consider `[2H]C([2H])([2H])NC(=O)c1nnc(NC(=O)C2CC2)cc1Nc1cccc(-c2nc(C)c(C(=O)N3CCC(N4CCCC4)CC3)s2)c1OC` [Example 361], for which the IC50 amounted to 190 nM.

As for `[2H]C([2H])([2H])NC(=O)c1nnc(NC(=O)C2CC2)cc1Nc1cccc(-c2cc(C(=O)NCC(O)CO)n(C)n2)c1OC` (centres unmarked) [Example 521], the half-maximal inhibitory concentration (IC50) turned out to be 2410 nM.

As for `[2H]C([2H])([2H])NC(=O)c1nnc(NC(=O)C2CC2)cc1Nc1cccc(-c2nc(C)c(C(=O)N3C[C@@H](C)O[C@@H](C)C3)s2)c1OC` [Example 362], the IC50 amounted to 270 nM.

As to `COCCNC(=O)c1cnc(-c2cccc(Nc3cc(NC(=O)C4CC4)nnc3C(N)=O)c2OC)s1` [Example 408], the IC50 was determined as 110 nM.

With `[2H]C([2H])([2H])NC(=O)c1cnc(NC(=O)C2CC2)cc1Nc1cccc(-c2cnn(CCNC(=O)C(C)(C)O)n2)c1OC` [Example 443], the IC50 turned out to be 270 nM.

For the molecule `[2H]C([2H])([2H])NC(=O)c1cnc(Nc2cc(C)ccn2)cc1Nc1cccc(-c2noc(COCC)n2)c1OC` [Example 100], the IC50 was 60 nM.

As for `[2H]C([2H])([2H])NC(=O)c1nnc(NC(=O)C2CC2)cc1Nc1cccc(-c2ncc(COCC)s2)c1OC` [Example 394], the IC50 is 420 nM.

Regarding `[2H]C([2H])([2H])NC(=O)c1nnc(NC(=O)C2CC2)cc1Nc1cccc(-c2nc(C)c(C(=O)N3CCN(C(C)C)CC3)s2)c1OC` [Example 369], the IC50 came out at 50 nM.

For `[2H]C([2H])([2H])NC(=O)c1nnc(NC(=O)C2CC2)cc1Nc1cccc(-c2ncc(C(=O)NCCN3CCCC(F)C3)s2)c1OC` (centres unmarked) [Example 347], the IC50 is 13 nM.

As to `COc1c(Nc2cc(NC(=O)C3CC3)nnc2C(N)=O)cccc1-c1ncc(CN2CCN(S(C)(=O)=O)CC2)s1` [Example 395], the IC50 stood at 80 nM.

`[2H]C([2H])([2H])NC(=O)c1nnc(NC(=O)C2CC2)cc1Nc1cc(F)cc(-c2cc(C(=O)N3CCN(CCO)CC3)n(C)n2)c1OC` [Example 484]: the IC50 was found to be 100 nM.
